Target: T1, hGPR40 (Homo sapiens, UniProt O14842)
T1 construct: 3x FLAG; expressed in transfected cells
Test: FDSS-Based Intracellular Calcium Assay
Type: cell-based
Settings: cells expressing GPR40, intracellular Ca2+ response
Experimental: FDSS-Based Intracellular Calcium Assay
Cell lines expressing GPR40 are generated using the pDEST 3× flag gene expression system and are cultured in culture medium comprising the following components: F12 (Gibco #11765), 10% lipid deprived fetal bovine serum, 250 μg/ml zeocin and 500 μg/ml G418. To conduct the fluorescent imaging plate reader (FLIPR)-based calcium flux assay to measure intracellular Ca^2+ response, cells expressing GPR40 are plated on 384 well plates (BD Biocoat #356697) at a density of 20,000 cells/20 μL medium per well in phenol red and serum-free DMEM (Gibco #21063-029) and incubated overnight. […] Compounds are dissolved in DMSO and diluted to desired concentrations with assay buffer and added to the cells as 3x solution (20 μL per well). Run fluorescence/luminescence reader FDSS (Hamamatsu) to read intracellular Ca^2+ response.

T1 sequence (O14842 whole entry): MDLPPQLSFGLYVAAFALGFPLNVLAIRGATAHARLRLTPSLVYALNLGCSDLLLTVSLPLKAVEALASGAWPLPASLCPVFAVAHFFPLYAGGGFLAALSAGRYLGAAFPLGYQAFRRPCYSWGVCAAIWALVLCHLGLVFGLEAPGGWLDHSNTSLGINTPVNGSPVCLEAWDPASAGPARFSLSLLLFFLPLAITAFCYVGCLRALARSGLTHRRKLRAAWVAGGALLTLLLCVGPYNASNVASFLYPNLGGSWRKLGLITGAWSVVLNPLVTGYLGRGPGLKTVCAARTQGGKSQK

Row | Compound | EC50
1 | COc1cc(-c2ccc(Oc3ccc(N4N=C(C(F)(F)F)CC4CC(=O)O)cc3)c(C)c2)c(F)cn1 (single isomer, unassigned) [Example 15, Isomer 1, 2-(1-(4-(4-(5-fluoro-2-methoxypyridin-4-yl)-2-methylphenoxy)phenyl)-3-(trifluoromethyl)-4,5-dihydro-1H-pyrazol-5-yl)acetic acid] | 270 nM
2 | COc1ccc(F)c(-c2ccc(Oc3ccc(N4N=C(C(F)(F)F)CC4CC(=O)O)cc3)cc2C)c1 (single isomer, unassigned) [Example 16, Isomer 2, 2-(1-(4-(2′-fluoro-5′-methoxy-2-methylbiphenyl-4-yloxy)phenyl)-3-(trifluoromethyl)-4,5-dihydro-1H-pyrazol-5-yl)acetic acid] | 340 nM
3 | Cc1cc(Br)c(F)cc1Oc1ccc(N2N=C(C(F)(F)F)CC2CC(=O)O)cc1 (racemic) [Example 10, 2-(1-(4-(4-bromo-5-fluoro-2-methylphenoxy)phenyl)-3-(trifluoromethyl)-4,5-dihydro-1H-pyrazol-5-yl)acetic acid] | 230 nM
4 | COc1cc(-c2ccc(Cc3ccc(N4N=C(C(F)(F)F)[C@@H](C)[C@@H]4CC(=O)O)cc3)c(C)c2)ccn1 [Example 75, 2-((4S,5S)-1-(4-(4-(2-methoxypyridin-4-yl)-2-methylbenzyl)phenyl)-4-methyl-3-(trifluoromethyl)-4,5-dihydro-1H-pyrazol-5-yl)acetic acid] | 430 nM
5 | COc1ccc(OC)c(-c2ccc(Cc3ccc(N4N=C(C#N)CC4CC(=O)O)cc3)c(C)c2)c1 (single isomer, unassigned) [Example 49, Isomer 1, 2-(3-cyano-1-(4-((2′,5′-dimethoxy-3-methylbiphenyl-4-yl)methyl)phenyl)-4,5-dihydro-1H-pyrazol-5-yl)acetic acid] | 225 nM
6 | COc1cc(-c2ccc(Cc3ccc(N4N=C(C(F)(F)F)[C@@H](C)[C@@H]4CC(=O)O)cc3)c(C)c2)c(F)cn1 [Example 74, 2-((4S,5 S)-1-(4-(4-(5-fluoro-2-methoxypyridin-4-yl)-2-methylbenzyl)phenyl)-4-methyl-3-(trifluoromethyl)-4,5-dihydro-1H-pyrazol-5-yl)acetic acid] | 210 nM
7 | COc1ccc(F)c(-c2ccc(Oc3ccc(N4N=C(C(F)(F)F)CC4CC(=O)O)cc3)c(Cl)c2)c1 (single isomer, unassigned) [Example 42, Isomer 1, 2-(1-(4-(3-chloro-2′-fluoro-5′-methoxybiphenyl-4-yloxy)phenyl)-3-(trifluoromethyl)-4,5-dihydro-1H-pyrazol-5-yl)acetic acid] | 620 nM
8 | COc1ccc(F)c(-c2ccc(Cc3ccc(N4N=C(C(F)(F)F)C[C@@H]4CC(=O)O)cc3)c(Cl)c2)c1 (single isomer, unassigned) [Example 20, Isomer 2] | 50 nM
9 | COc1ccc(F)c(-c2ccc(Cc3ccc(N4N=C(C(F)(F)F)C(CC(C)C)C4CC(=O)O)cc3)c(C)c2)c1 (single isomer, unassigned) [Example 41, Isomer 2, 2-(1-(4-((2′-fluoro-5′-methoxy-3-methylbiphenyl-4-yl)methyl)phenyl)-4-isobutyl-3-(trifluoromethyl)-4,5-dihydro-1H-pyrazol-5-yl)acetic acid] | 95 nM
10 | COc1ccc(F)c(-c2ccc(Cc3ccc(N4N=C(C(F)(F)F)C(CC#N)C4CC(=O)O)cc3)c(C)c2)c1 (single isomer, unassigned) [Example 54, Isomer 2, 2-(4-(cyanomethyl)-1-(4-((2′-fluoro-5′-methoxy-3-methyl-[1,1′-biphenyl]-4-yl)methyl)phenyl)-3-(trifluoromethyl)-4,5-dihydro-1H-pyrazol-5-yl)acetic acid, trans-diastereomer] | 1100 nM
11 | CCC1C(C(F)(F)F)=NN(c2ccc(Cc3ccc(-c4cc(OC)ccc4F)cc3C)cc2)C1CC(=O)O (single isomer, unassigned) [Example 44, Isomer 2, 2-(4-ethyl-1-(4-((2′-fluoro-5′-methoxy-3-methylbiphenyl-4-yl)methyl)phenyl)-3-(trifluoromethyl)-4,5-dihydro-1H-pyrazol-5-yl)acetic acid] | 20 nM

Other lines, results leading:

Row | EC50 | Compound
12 | 4290 nM | Cc1nc(-c2ccccc2)ncc1Cc1ccc(N2N=C(C(F)(F)F)[C@@H](C)[C@@H]2CC(=O)O)cc1 [Example 58, 2-((4S,5S)-4-methyl-1-(4-((4-methyl-2-phenylpyrimidin-5-yl)methyl)phenyl)-3-(trifluoromethyl)-4,5-dihydro-1H-pyrazol-5-yl)acetic acid]
13 | 290 nM | COc1ccc(F)c(-c2ccc(Oc3ccc(N4N=C(C(F)(F)F)CC4CC(=O)O)cc3)c(Cl)c2)c1 (single isomer, unassigned) [Example 42, Isomer 2, 2-(1-(4-(3-chloro-2′-fluoro-5′-methoxybiphenyl-4-yloxy)phenyl)-3-(trifluoromethyl)-4,5-dihydro-1H-pyrazol-5-yl)acetic acid]
14 | 6620 nM | COc1ccc(F)c(-c2ccc(Cc3ccc(N4N=C(C(=O)O)[C@@H](C)[C@@H]4CC(=O)O)cc3)c(C)c2)c1 [Example 57, (4S,5S)-5-(carboxymethyl)-1-(4-((2′-fluoro-5′-methoxy-3-methyl-[1,1′-biphenyl]-4-yl)methyl)phenyl)-4-methyl-4,5-dihydro-1H-pyrazole-3-carboxylic acid]
15 | 170 nM | COc1ccc(F)c(-c2ccc(Cc3ccc(N4N=C(C(F)(F)F)C(CO)C4CC(=O)O)cc3)c(C)c2)c1 (single isomer, unassigned) [Example 53, Isomer 1, 2-(1-(4-((2′-fluoro-5′-methoxy-3-methyl-[1,1′-biphenyl]-4-yl)methyl)phenyl)-4-(hydroxymethyl)-3-(trifluoromethyl)-4,5-dihydro-1H-pyrazol-5-yl)acetic acid, trans-diastereomer]
16 | 9 nM | COc1ccc(F)c(-c2ccc(Cc3ccc(N4N=C(c5ccc(F)cc5)[C@@H](C)[C@@H]4CC(=O)O)cc3)c(C)c2)c1 (single isomer, unassigned) [Example 67, isomer 1]
17 | 1310 nM | CCC1C(C(F)(F)F)=NN(c2ccc(Cc3ccc(-c4cc(OC)ccc4F)cc3C)cc2)C1CC(=O)O (single isomer, unassigned) [Example 44, Isomer 1, 2-(4-ethyl-1-(4-((2′-fluoro-5′-methoxy-3-methylbiphenyl-4-yl)methyl)phenyl)-3-(trifluoromethyl)-4,5-dihydro-1H-pyrazol-5-yl)acetic acid]
18 | 120 nM | COc1ccc(Cl)c(-c2ccc(Cc3ccc(N4N=C(C#N)CC4CC(=O)O)cc3)c(C)c2)c1 (racemic) [Example 40, 2-(1-(4-((2′-chloro-5′-methoxy-3-methylbiphenyl-4-yl)methyl)phenyl)-3-cyano-4,5-dihydro-1H-pyrazol-5-yl)acetic acid]
19 | 590 nM | COc1cccc(-c2cc(C)c(Oc3ccc(N4N=C(C#N)CC4CC(=O)O)cc3)cc2C)c1 (racemic) [Example 36, 2-(3-cyano-1-(4-(3′-methoxy-2,5-dimethylbiphenyl-4-yloxy)phenyl)-4,5-dihydro-1H-pyrazol-5-yl)acetic acid]
20 | 3280 nM | COc1ccc(F)c(-c2ccc(Cc3ccc(N4N=C(C(F)(F)F)C(C5CC5)C4CC(=O)O)cc3)c(C)c2)c1 (single isomer, unassigned) [Example 43, Isomer 1, 2-(4-cyclopropyl-1-(4-((2′-fluoro-5′-methoxy-3-methylbiphenyl-4-yl)methyl)phenyl)-3-(trifluoromethyl)-4,5-dihydro-1H-pyrazol-5-yl)acetic acid]
21 | 3820 nM | COc1ccc(F)c(-c2ccc(Cc3ccc(N4N=C(C(F)(F)F)C(C(C)C)C4CC(=O)O)cc3)c(C)c2)c1 (single isomer, unassigned) [Example 45, Isomer 1, 2-(1-(4-((2′-fluoro-5′-methoxy-3-methylbiphenyl-4-yl)methyl)phenyl)-4-isopropyl-3-(trifluoromethyl)-4,5-dihydro-1H-pyrazol-5-yl)acetic acid]
22 | 380 nM | COc1ccc(F)c(-c2ccc(Cc3ccc(N4N=C(C(F)(F)F)C(CC#N)C4CC(=O)O)cc3)c(C)c2)c1 (single isomer, unassigned) [Example 54, isomer 1, 2-(4-(cyanomethyl)-1-(4-((2′-fluoro-5′-methoxy-3-methyl-[1,1′-biphenyl]-4-yl)methyl)phenyl)-3-(trifluoromethyl)-4,5-dihydro-1H-pyrazol-5-yl)acetic acid, trans-diastereomer]
23 | 150 nM | COc1ccc(F)c(-c2ccc(Cc3ccc(N4N=C(C(F)(F)F)CC4CC(=O)O)cc3)c(C)c2)c1 (single isomer, unassigned) [Example 17, Isomer 1, 2-(1-(4-((2′-fluoro-5′-methoxy-3-methylbiphenyl-4-yl)methyl)phenyl)-3-(trifluoromethyl)-4,5-dihydro-1H-pyrazol-5-yl)acetic acid]
24 | 1550 nM | COc1ccc(F)c(-c2ccc(Cc3ccc(N4N=C(C(F)(F)F)CC4(C)CC(=O)O)cc3)c(C)c2)c1 (single isomer, unassigned) [Example 51, Isomer 1, 2-(1-(4-((2′-fluoro-5′-methoxy-3-methylbiphenyl-4-yl)methyl)phenyl)-5-methyl-3-(trifluoromethyl)-4,5-dihydro-1H-pyrazol-5-yl)acetic acid]
25 | 360 nM | Cc1cc(Oc2ccc(N3N=C(C#N)CC3CC(=O)O)cc2)c(C)cc1Br (racemic) [Example 31, 2-(1-(4-(4-bromo-2,5-dimethylphenoxy)phenyl)-3-cyano-4,5-dihydro-1H-pyrazol-5-yl)acetic acid]

From patent US9656963B2 (BRISTOL-MYERS SQUIBB COMPANY, priority 2012, dated 2017)
